Experimental findings from patent US10123993B2, “Cyclic ureas as inhibitors of rock” (BRISTOL-MYERS SQUIBB COMPANY, priority 2015, dated 2018) are described below.

Molecules are shown by their SMILES. Structures can show the parent of a compound that is named as a salt. A value given as a limit tells only on which side of the number the result lay.

This test deals with ROCK2 (Homo sapiens, UniProt O75116). Description: ROCK2 kinase inhibition assay (Caliper LABCHIP, FITC peptide substrate). Conditions: 5 μM ATP, 1.5 μM peptide substrate; value ranges. The class given is biochemical. The procedure: The effectiveness of compounds of the present invention as ROCK inhibitors can be determined in a 30 μL assay containing 20 mM HEPES, pH 7.5, 20 mM MgCl2, 0.015% Brij-35, 4 mM DTT, 5 μM ATP and 1.5 μM peptide substrate (FITC-AHA-AKRRRLSSLRA-OH). Compounds were dissolved in DMSO so that the final concentration of DMSO was <2%, and the reaction was initiated with Rho kinase variants. After incubation, the reaction was terminated by the addition of EDTA and the phosphorylated and non-phosphorylated peptides separated using a LABCHIP® 3000 Reader (Caliper Life Sciences). […] Compounds were tested in dose-response format, and the inhibition of kinase activity was calculated at each concentration of compound. The inhibition data were fit using a curve-fitting program to determine the IC50; i.e., the concentration of compound required to inhibit 50% of kinase activity.
ROCK2, sequence (O75116 whole entry, species assumed): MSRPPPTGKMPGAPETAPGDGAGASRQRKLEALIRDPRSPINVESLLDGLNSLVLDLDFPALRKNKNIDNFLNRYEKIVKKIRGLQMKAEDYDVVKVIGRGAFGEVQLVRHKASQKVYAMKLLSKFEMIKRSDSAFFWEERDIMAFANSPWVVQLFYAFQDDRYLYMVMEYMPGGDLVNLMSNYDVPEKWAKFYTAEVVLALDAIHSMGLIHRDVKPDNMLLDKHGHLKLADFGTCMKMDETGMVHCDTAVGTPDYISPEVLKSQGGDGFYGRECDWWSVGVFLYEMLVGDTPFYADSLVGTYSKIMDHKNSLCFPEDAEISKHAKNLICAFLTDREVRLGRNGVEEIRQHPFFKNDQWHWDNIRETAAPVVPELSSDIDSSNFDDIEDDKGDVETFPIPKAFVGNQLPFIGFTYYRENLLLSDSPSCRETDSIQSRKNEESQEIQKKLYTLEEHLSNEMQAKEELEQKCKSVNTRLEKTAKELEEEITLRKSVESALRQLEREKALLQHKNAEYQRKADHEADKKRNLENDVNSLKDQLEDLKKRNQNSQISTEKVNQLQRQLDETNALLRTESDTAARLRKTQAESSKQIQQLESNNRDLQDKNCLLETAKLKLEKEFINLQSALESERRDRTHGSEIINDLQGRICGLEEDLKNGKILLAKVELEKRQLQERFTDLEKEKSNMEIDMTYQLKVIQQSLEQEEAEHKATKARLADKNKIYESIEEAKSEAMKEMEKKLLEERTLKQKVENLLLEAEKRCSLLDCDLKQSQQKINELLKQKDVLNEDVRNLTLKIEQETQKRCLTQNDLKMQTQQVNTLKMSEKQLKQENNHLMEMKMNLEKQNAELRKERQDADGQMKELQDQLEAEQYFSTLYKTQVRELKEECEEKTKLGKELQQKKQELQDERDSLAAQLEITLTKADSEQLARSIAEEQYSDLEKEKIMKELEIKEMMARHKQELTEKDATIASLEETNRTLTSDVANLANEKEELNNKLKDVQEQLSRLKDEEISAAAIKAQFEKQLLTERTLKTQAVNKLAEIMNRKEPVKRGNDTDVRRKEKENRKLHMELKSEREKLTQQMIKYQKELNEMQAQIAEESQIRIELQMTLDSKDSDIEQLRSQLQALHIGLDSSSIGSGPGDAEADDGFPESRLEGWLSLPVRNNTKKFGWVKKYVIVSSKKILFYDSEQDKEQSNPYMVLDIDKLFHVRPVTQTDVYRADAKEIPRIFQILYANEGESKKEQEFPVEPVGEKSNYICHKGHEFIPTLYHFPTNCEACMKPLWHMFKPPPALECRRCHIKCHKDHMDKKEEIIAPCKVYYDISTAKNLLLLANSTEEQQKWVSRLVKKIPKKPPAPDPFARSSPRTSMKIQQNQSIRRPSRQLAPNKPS
Representative Examples were tested in the ROCK2 assay described above and found having ROCK inhibitory activity.
The IC50 is the concentration that gives 50% inhibition. A lower IC50 goes with greater potency in that assay. Turning to `COc1cccc(CN2C(=O)N(c3ccc(-c4cn[nH]c4)cc3)C[C@@H]2CO)c1` [Example 125, (R)-1-(4-(1H-Pyrazol-4-yl)phenyl)-4-(hydroxymethyl)-3-(3-methoxybenzyl)imidazolidin-2-one], the IC50 is less than 0.002 µM. The value for `COc1cccc(CN2CCN(c3ccc(-c4cn[nH]c4)c(C)c3)C2=O)c1` [Example 273, 1-(3-methoxybenzyl)-3-(3-methyl-4-(1H-pyrazol-4-yl)phenyl)imidazolidin-2-one] was 0.0021 to 0.02 µM; that for `COc1cc(F)cc(C(C)n2ccn(-c3ccc(-c4cn[nH]c4)cn3)c2=O)c1` (single isomer, unassigned) [Example 394, 1-(5-(1H-pyrazol-4-yl)pyridin-2-yl)-3-(1-(3-fluoro-5-methoxyphenyl)ethyl)-1H-imidazol-2(3H)-one] was 0.0201 to 0.2 µM. The value for `COc1cccc(C(C(=O)NCC2CC2)N2CCN(c3ccc(-c4cn[nH]c4)cc3)C2=O)c1` (single isomer, unassigned) [Example 297, 2-(3-(4-(1H-pyrazol-4-yl)phenyl)-2-oxoimidazolidin-1-yl)-N-(cyclopropylmethyl)-2-(3-methoxyphenyl)acetamide] was 0.2 to 2 µM; that for `CC(c1ccccc1)N1CC(=O)N(c2ccc(-c3cn[nH]c3)cc2)C1=O` (centres unmarked) [Example 95, 3-(4-(1H-pyrazol-4-yl)phenyl)-1-(1-phenylethyl)imidazolidine-2,4-dione] was 0.0201 to 0.2 µM. The value for `COc1cc(F)cc(Cn2ccn(-c3ccc(-c4cn[nH]c4)cn3)c2=O)c1` [Example 345, 1-(5-(1H-pyrazol-4-yl)pyridin-2-yl)-3-(3-fluoro-5-methoxybenzyl)-1H-imidazol-2(3H)-one] was 0.0021 to 0.02 µM; that for `COc1nc(N2CCN(Cc3noc(C)n3)C2=O)ccc1-c1cn[nH]c1` [Example 255, 1-((6-methoxy-5-(1H-pyrazol-4-yl)pyridin-2-yl)-3-(5-methyl-1,2,4-oxadiazol-3-yl)methyl)imidazolidin-2-one] was 0.2 to 2 µM; that for `CCC1CN(c2ccc(-c3cn[nH]c3)cc2)C(=O)N1Cc1cccc(OCC2CC2)c1` (centres unmarked) [Example 177, 1-(4-(1H-pyrazol-4-yl)phenyl)-3-(3-(cyclo-propyl-methoxy)-benzyl)-4-ethyl-imidazolidin-2-one] was 0.0201 to 0.2 µM. Turning to `COc1cccc(C(C)(CO)N2CCN(c3ccc(-c4cn[nH]c4)cc3)C2=O)c1` (single isomer, unassigned) [Example 286, 1-(4-(1H-Pyrazol-4-yl)phenyl)-3-(1-hydroxy-2-(3-methoxyphenyl)propan-2-yl)imidazolidin-2-one], the IC50 was in the range of 0.0201 to 0.2 µM.

Consider `CNc1nc(N2CCN(Cc3cc(F)cc(OC)c3)C2=O)ccc1-c1cn[nH]c1` [Example 200, 1-(3-fluoro-5-methoxy-benzyl)-3-(6-(methyl-amino)-5-(1H-pyrazol-4-yl)pyridin-2-yl)-imidazolidin-2-one], for which the IC50 lay within 0.0021 to 0.02 µM. The value for `COc1cc(F)cc(CN2C(=O)N(c3ccc(-c4cn[nH]c4)cc3)CC2(C)C)c1` [Example 138, 1-(4-(1H-pyrazol-4-yl)phenyl)-3-(3-fluoro-5-methoxy-benzyl)-4,4-dimethyl-imidazolidin-2-one] was 0.0021 to 0.02 µM; that for `CCc1nc(-n2ccn(C(C)c3cccc(OC)c3)c2=O)ccc1-c1cn[nH]c1` (single isomer, unassigned) [Example 183, 1-(6-ethyl-5-(1H-pyrazol-4-yl)pyridin-2-yl)-3-(1-(3-methoxy-phenyl)-ethyl)-1H-imidazol-2(3H)-one] was less than 0.002 µM; that for `COc1cc(N2CC(=O)N(C(C)c3ccccc3)C2=O)ccc1-c1cn[nH]c1` (centres unmarked) [Example 106, 1-(3-methoxy-4-(1H-pyrazol-4-yl)phenyl)-3-(1-phenylethyl) imidazolidine-2,4-dione] was 0.0201 to 0.2 µM. The value for `COc1cc(N2CCN(Cc3cccc(F)c3)C2=O)ccc1-c1ccncc1` [Example 59, 1-(3-fluorobenzyl)-3-(3-methoxy-4-(pyridin-4-yl)phenyl)imidazolidin-2-one, TFA] was 0.0201 to 0.2 µM; that for `COc1cccc(C(C)N2CCN(c3ccc(-c4cn[nH]c4)c(OC)n3)C2=O)c1` (single isomer, unassigned) [Example 220, 1-(6-methoxy-5-(1H-pyrazol-4-yl)pyridin-2-yl)-3-(1-(3-methoxyphenyl)ethyl)imidazolidin-2-one] was 0.0201 to 0.2 µM. As for `COc1cccc(CN2C(=O)N(c3ccc(-c4cn[nH]c4)c(OC)c3)CC2CO)c1` (centres unmarked) [Example 40, 4-(Hydroxymethyl)-1-(3-methoxy-4-(1H-pyrazol-4-yl)phenyl)-3-(3-methoxybenzyl)imidazolidin-2-one], the IC50 was less than 0.002 µM. Compound `COc1cccc(C(C)N2CCN(c3ccc(-c4cn[nH]c4)cn3)C2=O)c1` (single isomer, unassigned) [Example 459, 1-(5-(1H-pyrazol-4-yl)pyridin-2-yl)-3-(1-(3-methoxyphenyl)ethyl)imidazolidin-2-one] gave an IC50 of 0.0201 to 0.2 µM. In turn, `CCc1nc(-n2ccn(C(C)c3cc(F)cc(OC)c3)c2=O)ccc1-c1cn[nH]c1` (single isomer, unassigned) [Example 362, 1-(6-ethyl-5-(1H-pyrazol-4-yl)pyridin-2-yl)-3-(1-(3-fluoro-5-methoxyphenyl)ethyl)-1H-imidazol-2(3H)-one] registered an IC50 of less than 0.002 µM.

`COc1cccc(CN2CCN(c3ccc(-c4cn[nH]c4)nc3)C2=O)c1` [Example 439, 1-(6-(1H-pyrazol-4-yl)pyridin-3-yl)-3-(3-methoxybenzyl)imidazolidin-2-one]: the IC50 was in the range of 0.0021 to 0.02 µM. The value for `O=C1CN(c2ccc(-c3cn[nH]c3)cc2)C(=O)N1Cc1c(F)cccc1F` [Example 108, 1-(4-(1H-pyrazol-4-yl)phenyl)-3-(2,6-difluorobenzyl) imidazolidine-2,4-dione] was 0.2 to 2 µM. The value for `COc1cc(N2CC(=O)N(CCc3ccccc3)C2=O)ccc1-c1cn[nH]c1` [Example 103, 1-(3-methoxy-4-(1H-pyrazol-4-yl)phenyl)-3-phenethylimidazolidine-2,4-dione] was 0.0201 to 0.2 µM. The value for `COc1cc(CN2CCN(c3ccc(-c4cn[nH]c4)c(OC)n3)C2=O)ccc1F` [Example 214, 1-(4-fluoro-3-methoxybenzyl)-3-(6-methoxy-5-(1H-pyrazol-4-yl)pyridin-2-yl)imidazolidin-2-one] was less than 0.002 µM; that for `COc1cccc(CN2CCN(c3ccc(-c4cn[nH]c4)c(C(F)(F)F)c3)C2=O)c1` [Example 275, 1-(4-(1H-pyrazol-4-yl)-3-(trifluoromethyl)phenyl)-3-(3-methoxybenzyl)imidazolidin-2-one] was 0.0201 to 0.2 µM. As to `COc1cccc(CN2CC(CO)N(c3ccc(-c4cn[nH]c4)cc3)C2=O)c1` (single isomer, unassigned) [Example 127, 3-(4-(1H-Pyrazol-4-yl)phenyl)-4-(hydroxymethyl)-1-(3-methoxybenzyl)imidazolidin-2-one], the IC50 is less than 0.002 µM. `O=c1n(Cc2cccc(F)c2)ccn1-c1ccc(-c2cn[nH]c2)cc1` [Example 321]: the IC50 was in the range of 0.0021 to 0.02 µM.

As for `O=c1n(CCc2ccccc2F)ccn1-c1ccc(-c2cn[nH]c2)cc1` [Example 330, 1-(4-(1H-pyrazol-4-yl)phenyl)-3-(2-fluorophenethyl)-1H-imidazol-2(3H)-one], the IC50 fell in the range of 0.0201 to 0.2 µM. For the compound `COc1ccc(F)c(CN2CCN(c3ccc(-c4ccncc4)c(OC)c3)C2=O)c1` [Example 58, 1-(2-fluoro-5-methoxybenzyl)-3-(3-methoxy-4-(pyridin-4-yl)phenyl)imidazolidin-2-one, TFA], the IC50 was in the range of 0.2 to 2 µM. As to `COc1cc(N2CC(CO)N(Cc3ccccc3)C2=O)ccc1-c1cn[nH]c1` (centres unmarked) [Example 41, 3-Benzyl-4-(hydroxymethyl)-1-(3-methoxy-4-(1H-pyrazol-4-yl)phenyl)imidazolidin-2-one], the IC50 lay within 0.0021 to 0.02 µM.

`COc1cccc(C(C)n2ccn(-c3ccc(-c4cn[nH]c4)cn3)c2=O)c1` (single isomer, unassigned) [Example 354, 1-(5-(1H-pyrazol-4-yl)pyridin-2-yl)-3-(1-(3-methoxyphenyl)ethyl)-1H-imidazol-2(3H)-one] came in with an IC50 of 0.0201 to 0.2 µM. The value for `COc1nc(-n2ccn(Cc3cccc(F)c3C)c2=O)ccc1-c1cn[nH]c1` [Example 380, 1-(3-fluoro-2-methylbenzyl)-3-(6-methoxy-5-(1H-pyrazol-4-yl)pyridin-2-yl)-1H-imidazol-2(3H)-one] was less than 0.002 µM; that for `O=C1N(CCc2ccccc2)CCN1c1ccc(-c2cn[nH]c2)cc1` [Example 1, 1-(4-(1H-Pyrazol-4-yl)phenyl)-3-phenethylimidazolidin-2-one] was 0.0021 to 0.02 µM; that for `O=C1CN(Cc2ccccc2Cl)C(=O)N1c1ccc(-c2cn[nH]c2)cc1` [Example 82, 3-(4-(1H-pyrazol-4-yl)phenyl)-1-(2-chlorobenzyl)imidazolidine-2,4-dione] was 0.0201 to 0.2 µM. The value for `COc1cc(N2CCN(CCc3ccc(F)cc3)C2=O)ccc1-c1cn[nH]c1` [Example 8, 1-(4-Fluorophenethyl)-3-(3-methoxy-4-(1H-pyrazol-4-yl)phenyl)imidazolidin-2-one] was 0.2 to 2 µM. Regarding `CCOc1cccc(C(C)N2CCN(c3ccc(-c4cn[nH]c4)c(CC)n3)C2=O)c1` (single isomer, unassigned) [Example 267, 1-(1-(3-ethoxyphenyl)ethyl)-3-(6-ethyl-5-(1H-pyrazol-4-yl)pyridin-2-yl)imidazolidin-2-one], the IC50 is 0.2 to 2 µM. The value for `O=C1N(Cc2cccc(F)c2)CCN1c1ccc(-c2cnoc2)cc1` [Example 61, 1-(3-fluorobenzyl)-3-(4-(isoxazol-4-yl)phenyl)imidazolidin-2-one] was 0.2 to 2 µM.
